# According to patent US9944618B2, “Inhibiting neurotransmitter reuptake” (Mayo Foundation for Medical Education and Research, priority 2013, dated 2018):
# Target: human dopamine transporter (Homo sapiens (Human), UniProt Q01959)
# Assay: Human DAT (dopamine transporter) uptake assay
# Format: cell-based
# Conditions: read-out: hDAT Ki
# Protocol: This protocol was designed to measure inhibition of uptake by the human dopamine transporter. […] The Assay Buffer (AB) was 1×HBSS and 0.02 M HEPES.
# (§1) The HEK293F cells were transfected with the human dopamine transporter and frozen in 1 mL aliquots at about 1E+07 cells/mL. On the day of the experiment, the cells were removed from −80° C. or liquid nitrogen and thawed in a room temperature water bath. The cells were dilute to about 1-2E+06 with Freestyle medium. A 1 mL sample (1:2 dilution) was prepared, and the cells were counted. The cells were spun at 1100 rpm for 5 minutes, and the medium was aspirated off. The cells were resuspend in medium at 1.5E+06 cells/mL for about 60,000 cells per well. 40 μL of cells were dispensed per well in the Biocoat plates. The plates were spun at 1100 rpm for 1 minute to improve homogeneity of the cell layer and were incubated at 37° C. for a minimum of 3 hours.
# (§2) 12 μL of test compound (10 mM) in DMSO was added to the wells, and nomifensine was used as a control. […] The neurotransmitter transporter dye was prepared in AB prior to use.
# Due to the proprietary nature of the dye formulation, all dye concentrations were expressed as a percentage of the vendor-recommended dye reconstitution. Thus, the above calculations were valid when both [dye] and K1 were expressed in the same units (%). Compounds were tested in triplicate (n=3).
# Chain of human dopamine transporter (Q01959 whole entry): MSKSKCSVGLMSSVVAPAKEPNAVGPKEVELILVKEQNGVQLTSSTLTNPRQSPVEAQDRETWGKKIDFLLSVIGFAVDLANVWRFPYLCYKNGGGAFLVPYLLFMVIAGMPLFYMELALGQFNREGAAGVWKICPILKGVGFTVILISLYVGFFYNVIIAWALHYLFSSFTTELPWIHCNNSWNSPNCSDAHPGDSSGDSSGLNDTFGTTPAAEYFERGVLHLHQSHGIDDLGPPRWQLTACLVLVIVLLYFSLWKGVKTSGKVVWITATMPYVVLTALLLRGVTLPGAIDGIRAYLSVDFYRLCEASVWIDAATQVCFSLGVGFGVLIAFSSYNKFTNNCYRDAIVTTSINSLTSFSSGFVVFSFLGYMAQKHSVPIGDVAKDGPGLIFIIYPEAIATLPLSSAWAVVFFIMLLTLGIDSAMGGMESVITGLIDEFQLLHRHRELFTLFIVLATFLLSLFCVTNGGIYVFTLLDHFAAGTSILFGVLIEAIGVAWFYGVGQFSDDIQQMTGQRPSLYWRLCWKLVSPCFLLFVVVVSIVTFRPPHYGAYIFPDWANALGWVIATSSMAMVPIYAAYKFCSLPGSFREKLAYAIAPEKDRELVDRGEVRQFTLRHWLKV
row,Ki,SMILES
1,80.4 nM,NC[C@@H](c1ccc2ccccc2c1)[C@@H](O)c1ccccc1 [Compound 88]
2,249 nM,NCC(c1ccc2ccccc2c1)[C@@H](O)c1ccccc1 (some centres unmarked) [Compound 91]

# System: not listed separately
# Assay: pKa of basic centres (Table 1)
# Format: physicochemical
# Conditions: first base, e.g., an aliphatic primary, secondary, or tertiary amine; read-out: pKa (Base 1)
row,SMILES,pKa
1,CNCC(Cc1ccccc1F)c1ccc2ccccc2c1 (racemic) [Compound 36],10
2,CNCC(Cc1ccccc1F)c1ccc2ccccc2c1 (centres unmarked) [Compound 17],10
3,NC[C@@H](c1ccc2ccccc2c1)[C@@H](O)c1ccccc1 [Compound 88],8.7
4,NCC(c1ccc2ccccc2c1)[C@@H](O)c1ccccc1 (some centres unmarked) [Compound 91],8.7
5,CNC[C@H](c1ccc2ccccc2c1)[C@H](OCC(=O)N1CC[C@H](OC)C1)c1ccccc1 [Compound 131],9.6
6,CNC[C@H](Cc1ccccc1F)c1ccc2ccccc2c1 [Compound 138],10

# Target: human norepinephrine transporter (Homo sapiens (Human), UniProt P23975)
# Sequence (P23975 whole entry): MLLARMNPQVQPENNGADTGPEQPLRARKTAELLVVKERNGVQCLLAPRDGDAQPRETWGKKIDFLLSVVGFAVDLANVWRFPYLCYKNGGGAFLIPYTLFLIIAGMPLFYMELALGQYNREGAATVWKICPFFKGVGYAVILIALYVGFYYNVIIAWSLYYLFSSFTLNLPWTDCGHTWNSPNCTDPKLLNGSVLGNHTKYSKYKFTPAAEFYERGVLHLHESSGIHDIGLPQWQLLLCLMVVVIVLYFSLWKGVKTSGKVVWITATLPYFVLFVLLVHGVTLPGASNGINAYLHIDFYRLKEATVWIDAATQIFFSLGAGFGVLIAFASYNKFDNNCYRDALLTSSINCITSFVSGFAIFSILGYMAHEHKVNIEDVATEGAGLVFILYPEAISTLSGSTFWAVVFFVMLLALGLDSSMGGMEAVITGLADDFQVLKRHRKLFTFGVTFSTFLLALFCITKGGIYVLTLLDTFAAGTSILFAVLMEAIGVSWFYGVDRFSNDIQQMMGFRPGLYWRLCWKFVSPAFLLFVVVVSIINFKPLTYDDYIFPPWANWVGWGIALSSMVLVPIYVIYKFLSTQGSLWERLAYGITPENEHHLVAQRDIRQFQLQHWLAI
# Assay: Human NET (norepinephrine transporter) uptake assay
# Format: cell-based
# Conditions: comparison in words, used to assign configuration
# Protocol: This protocol was designed to measure inhibition of uptake by the human norepinephrine transporter. […] The Assay Buffer (AB) was 1×HBSS and 0.02 M HEPES.
# as §1, with “norepinephrine” for “dopamine”
# as §2
# Due to the proprietary nature of the dye formulation, all dye concentrations were expressed as a percentage of the vendor-recommended dye reconstitution. Thus, the above calculations were valid when both [dye] and Km were expressed in the same units (%). Compounds were tested in triplicate (n=3).
row,SMILES,potency at hNET relative to the other enantiomer or epimer
1,CNC[C@H](c1ccc2ccccc2c1)[C@H](O)c1cncc(OC)c1 [compound 92],more potent
2,CNC[C@H](C[C@H](O)c1ccccc1)c1ccc2ccccc2c1 [compound 93],less potent
3,CNC[C@H](c1ccc(Cl)c(Cl)c1)[C@@H](O)c1cccc(NC(C)=O)c1 [compound 94],more potent
4,NC[C@H](c1ccc2ccccc2c1)[C@@H](O)c1ccncc1Cl [compound 95],higher inhibitory activity
5,CNC[C@@H](c1ccc2ccccc2c1)[C@H](O)c1ccccc1F [compound 96],less potent
6,CNC[C@H](c1ccc(Cl)c(Cl)c1)[C@@H](O)c1ccccc1SC [compound 97],more potent
7,CNC[C@@H](c1ccc(Cl)c(Cl)c1)[C@H](O)c1cccc(NC(C)=O)c1 [compound 98],less potent
8,CNC[C@@H](c1ccc2ccccc2c1)[C@H](O)c1ccccn1 [compound 99],lower inhibitory activity
9,CNC[C@H](c1ccc(Cl)c(Cl)c1)[C@@H](O)c1ccccc1-c1cccs1 [compound 100],higher inhibitory activity
10,CNC[C@H](c1ccc(Cl)c(Cl)c1)[C@H](O)c1cccc(S(C)(=O)=O)c1 [compound 101],higher potency
11,CNC[C@H](c1ccc(Cl)c(Cl)c1)[C@H](O)c1cccc([N+](=O)[O-])c1 [compound 102],more potent
12,CNC[C@@H](c1ccc2ccccc2c1)[C@@H](O)c1cccnc1 [compound 103],less potent
13,CNC[C@H](c1ccc(Cl)c(Cl)c1)[C@@H](O)c1cccnc1OC [compound 104],higher inhibitory activity
14,CNC[C@@H](c1ccc(Cl)c(Cl)c1)[C@@H](O)c1ccsc1 [compound 106],lower potency
15,NCC(c1ccc2ccccc2c1)C(O)c1ccc(F)cc1F (centres unmarked) [compound 107],higher potency
16,CNC[C@@H](c1ccc(Cl)c(Cl)c1)[C@@H](O)c1cncc(OC)c1 [compound 109],lower potency
17,CNC[C@@H](c1ccc(Br)c(Cl)c1)[C@@H](O)c1ccccc1 [compound 110],lower potency

# Next, values leading:
row,potency at hNET relative to the other enantiomer or epimer,SMILES
1,weak hNET potency,CNC[C@@H](c1ccc(Cl)c(Cl)c1)[C@@H](O)c1ccccc1 [compound 114]
2,lower potency,NC[C@@H](c1ccc2ccccc2c1)C(O)c1ccncc1Cl (some centres unmarked) [compound 118]
3,lower inhibitory activity,CNC[C@@H](c1ccc(Cl)c(Cl)c1)[C@@H](O)c1cccc(SC)c1 [compound 120]
4,lower potency,CNC[C@@H](c1ccc(Cl)c(Cl)c1)[C@@H](O)c1cccc(NS(=O)(=O)C(F)(F)F)c1 [compound 121]
5,lower inhibitory activity,CNC[C@@H](c1ccc2ccccc2c1)[C@@H](O)c1cncc(OC)c1 [compound 122]
6,lower inhibitory activity,CNC[C@@H](c1ccc(Cl)c(Cl)c1)[C@@H](O)c1cccc(N2CCOCC2)c1 [compound 125]
7,lower potency,NC[C@@H](c1ccc2ccccc2c1)[C@@H](O)c1ccc(Cl)nc1 [compound 126]
8,higher inhibitory activity,CNC[C@H](c1ccc(Cl)c(Cl)c1)[C@@H](O)c1cccc(NS(=O)(=O)C(F)(F)F)c1 [compound 127]
9,less potent,CNC[C@@H](c1ccc(Cl)c(Cl)c1)[C@@H](O)c1ccccc1[S+](C)[O-] (some centres unmarked) [compound 128]
10,more potent,NC[C@@H](Cc1ccccc1O)c1ccc2ccccc2c1 [compound 133]
11,more potent,CNC[C@H](c1ccc2ccccc2c1)[C@@H](O)c1cc(F)cc(F)c1 [compound 141]
12,less potent,CNC[C@@H](c1ccc2ccccc2c1)[C@H](O)c1cc(F)cc(F)c1 [compound 142]
13,higher potency,CNC[C@H](c1ccc2ccccc2c1)[C@H](O)c1ccc2c(c1)OCCO2 [compound 143]
14,lower potency,CNCC(CCc1ccccc1)[C@@H](O)c1ccccc1 (some centres unmarked) [compound 147]
15,higher potency,CNC[C@H](c1ccc(Cl)c(Cl)c1)[C@H](O)c1cccc(I)c1 [compound 151]
16,higher potency,CNC[C@H](c1ccc(Cl)c(Cl)c1)[C@@H](O)c1ccccc1I [compound 152]
17,lower potency,CNC[C@@H](c1ccc(Cl)c(Cl)c1)[C@@H](O)c1cccc(SC)c1 [compound 154]
18,lower potency,CNC[C@@H](c1ccc(Cl)c(Cl)c1)[C@@H](O)c1cccc(OC)n1 [compound 157]
19,more potent,CCc1cccc([C@@H](O)[C@H](CNC)c2ccc(Cl)c(Cl)c2)c1 [compound 159]
20,greater hNET potency,CNC[C@H](c1ccc(Cl)c(Cl)c1)[C@H](O)c1ccccc1OC [compound 160]
21,more potent,CNC[C@H](c1ccc(Cl)c(Cl)c1)[C@@H](O)c1cccc(Br)c1 [compound 161]
22,less potent,CNC[C@@H](c1ccc(Cl)c(Cl)c1)[C@@H](O)c1cccc(Br)c1 [compound 162]
23,more potent,CNC[C@H](c1ccc(Cl)c(Cl)c1)[C@@H](O)c1cccc(SC)c1 [compound 163]
24,greater potency,CNC[C@H](c1ccc(Cl)c(Cl)c1)[C@H](O)c1ccccc1I [compound 164]
25,higher potency,CNC[C@H](c1ccc(Cl)c(Cl)c1)[C@@H](O)c1cccc(I)c1 [compound 165]
26,more potent,CNC[C@H](c1ccc(Cl)c(Cl)c1)[C@H](O)c1cncc(OC)c1 [compound 166]
27,higher potency,CNC[C@H](c1ccc(Cl)c(Cl)c1)[C@H](O)c1cccc(OC)n1 [compound 167]
28,lower potency,CNCC(c1ccc2ccccc2c1)[C@@H](O)c1ccc(Cl)nc1 (some centres unmarked) [compound 169]
29,less potent,CNC[C@@H](c1ccc(Cl)c(Cl)c1)[C@@H](O)c1cccnc1OC [compound 171]
30,less potent,CNC[C@@H](c1ccc(Cl)c(Cl)c1)[C@@H](OC)c1cccc(NS(=O)(=O)C(F)(F)F)c1 [compound 172]

# Same assay, conditions: stated in synthesis example
row,potency at hNET,SMILES
1,6 nM,CCc1ccccc1[C@@H](O)[C@H](CNC)c1ccc(Cl)c(Cl)c1 [compound 158]
